In ChEMBL document CHEMBL1201862, “PubChem BioAssay data set” (2004):
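Protocol summary: plate cells (96-well), add compound at 5 concentrations, incubate 48 h, interpolate endpoints linearly. GI50 is the concentration that inhibits growth by half.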 Activity calls are given as the source filed them. No stated cut-off is given here; in the data, active = GI50 up to about 1.1 µM and inactive = higher.

How the values were obtained:
Assay in all cases: growth of human tumour cells (NCI), 48 h
[1] = tested on: Malme-3M
[2] = tested on: NCI-H226
[3] = tested on: HCT-116
[4] = tested on: LOX IMVI
[5] = tested on: HOP-92
[6] = tested on: RPMI-8226
[7] = tested on: RXF 393
[8] = tested on: SK-MEL-28
[9] = tested on: CAKI-1
[10] = tested on: CCRF-CEM
[11] = tested on: U-251
[12] = tested on: SK-OV-3
[13] = tested on: NCI-H23
[14] = tested on: SK-MEL-5
[15] = tested on: HOP-62
[16] = tested on: HCT-15
[17] = tested on: OVCAR-8
[18] = tested on: IGROV-1

SMILES	GI50 [1]	GI50 [2]	GI50 [3]	GI50 [4]	GI50 [5]	GI50 [6]	GI50 [7]	GI50 [8]	GI50 [9]	GI50 [10]	GI50 [11]	GI50 [12]	GI50 [13]	GI50 [14]	GI50 [15]	GI50 [16] [µM]	GI50 [17]	GI50 [18]
CCN(CC)C(=O)COc1ccc(Br)cc1Br	> 100 µM (inactive)	> 100 µM (inactive)	> 100 µM (inactive)	> 100 µM (inactive)	87.5 µM (inactive)	> 100 µM (inactive)	> 100 µM (inactive)	> 100 µM (inactive)	> 100 µM (inactive)	> 100 µM (inactive)	> 100 µM (inactive)	> 100 µM (inactive)	82.6 µM (inactive)	> 100 µM (inactive)	> 100 µM (inactive)	> 100		
CC1(C)CCC[C@@]2(C)C1CCC1(C)C(CCc3ccoc3)/C(=C/OS(=O)(=O)O)CCC12 (some centres undefined)	> 100 µM (inactive)	54.8 µM (inactive)	16.5 µM (inactive)	> 100 µM (inactive)	23.9 µM (inactive)	33.7 µM (inactive)	61.9 µM (inactive)	58.7 µM (inactive)	> 100 µM (inactive)	25.4 µM (inactive)	57.5 µM (inactive)	71.9 µM (inactive)	50.4 µM (inactive)	> 100 µM (inactive)	> 100 µM (inactive)	49.5	> 100 µM (inactive)	> 100 µM (inactive)
CC(C)(c1ccc(C=O)o1)c1ccc(C(C)(C)c2ccc(C=O)o2)o1	> 100 µM (inactive)	> 100 µM (inactive)	> 100 µM (inactive)	> 100 µM (inactive)	69.5 µM (inactive)		> 100 µM (inactive)	> 100 µM (inactive)	> 100 µM (inactive)	> 100 µM (inactive)	> 100 µM (inactive)	> 100 µM (inactive)	> 100 µM (inactive)		> 100 µM (inactive)		> 100 µM (inactive)	> 100 µM (inactive)
COc1cccc(NC(=O)C(=O)C(C(C)=O)c2nc3ccc(Cl)cc3nc2O)c1 (centres undefined)	> 100 µM (inactive)	> 100 µM (inactive)	> 100 µM (inactive)	> 100 µM (inactive)	> 100 µM (inactive)	> 100 µM (inactive)	> 100 µM (inactive)	> 100 µM (inactive)	> 100 µM (inactive)	> 100 µM (inactive)	> 100 µM (inactive)	> 100 µM (inactive)	> 100 µM (inactive)	> 100 µM (inactive)	> 100 µM (inactive)	> 100	> 100 µM (inactive)	> 100 µM (inactive)
CCCc1c(C(=O)OCC)[nH]c(C(=O)CCC(=O)c2[nH]c(C(=O)OCC)c(CCC)c2C(=O)OCC)c1C(=O)OCC	> 100 µM (inactive)	> 100 µM (inactive)	> 100 µM (inactive)	> 100 µM (inactive)	> 100 µM (inactive)	> 100 µM (inactive)	70.5 µM (inactive)	> 100 µM (inactive)	> 100 µM (inactive)	> 100 µM (inactive)	> 100 µM (inactive)	> 100 µM (inactive)	> 100 µM (inactive)	> 100 µM (inactive)		> 100	> 100 µM (inactive)	> 100 µM (inactive)
CC(=O)c1cccc(N2COC(C)(C)c3nc4ccccc4n3C2)c1	> 100 µM (inactive)	> 100 µM (inactive)	> 100 µM (inactive)	> 100 µM (inactive)	> 100 µM (inactive)	> 100 µM (inactive)	> 100 µM (inactive)	> 100 µM (inactive)		> 100 µM (inactive)	> 100 µM (inactive)	> 100 µM (inactive)	> 100 µM (inactive)		> 100 µM (inactive)	> 100	> 100 µM (inactive)	> 100 µM (inactive)
N#CCc1ccc(C(C#N)/C(CCCC(=O)Nc2cccc([N+](=O)[O-])c2)=N/NC(N)=S)cc1 (centres undefined)	> 100 µM (inactive)	> 100 µM (inactive)	> 100 µM (inactive)	63.1 µM (inactive)	83.8 µM (inactive)	> 100 µM (inactive)	> 100 µM (inactive)	> 100 µM (inactive)	> 100 µM (inactive)	51.6 µM (inactive)	> 100 µM (inactive)	> 100 µM (inactive)	> 100 µM (inactive)	> 100 µM (inactive)	> 100 µM (inactive)	> 100		> 100 µM (inactive)
O=C1C(Br)=C[C@H]2C3C=CC(Br)(C3=O)[C@@H]12 (some centres undefined)	13.2 µM (inactive)	19 µM (inactive)	10.9 µM (inactive)		16.2 µM (inactive)	3.05 µM (inactive)	13.8 µM (inactive)	12.6 µM (inactive)	9.25 µM (inactive)	2.59 µM (inactive)	13.8 µM (inactive)	7.69 µM (inactive)	12.5 µM (inactive)	14 µM (inactive)	35.6 µM (inactive)	12.2	12.5 µM (inactive)	9.62 µM (inactive)
